Experimental data as given in patent publication US20100310544A1, “COMPOSITION COMPRISING CALCIUM IONS AND AT LEAST ONE PROTEOLYTIC ENZYME FOR USE IN THE IN VITRO AND IN VIVO REGENERATION OF CUTANEOUS AND CONNECTIVE TISSUES” (MEDEVICE S.P.A., priority 2007, published 2010).

Test system: cutis and subcutis
Assay: In vivo clinical studies II, Q-BASE-CREAM, regeneration and repairing of cutis and subcutis
Set-up: species or system human
Settings: Case 2, surgical suture dehiscence; before Q-BASE-CREAM
Description: A clinical study was performed, which was designed to assess the therapeutic effectiveness of the product designated as Q-BASE-CREAM in the regeneration and repairing of cutis and subcutis.
During the period comprised from March to May 2007, a mixed group of volunteers consisting of human (two women and one person) and veterinary (two dogs) patients were included in the clinical study.

Substance: povidone-iodine
- change of the lesion after 7 days of previous local therapy: no changes in the lesion occurred
